For test [1] the following is noted: compound concentration 10 ppm, foliar spray, evaluated 7 days after inoculation.
For another test, the target named is Human ACC2 (Homo sapiens, UniProt O00763). In words: In vitro ACC2 inhibition assay (ADP-Glo), human ACC2. Format: biochemical. To be noted: 5 nM ACC2, 20 μM ATP, 20 μM acetyl-CoA.
In a further test the test system is C. albicans ATCC 90028. In words: Anti-Fungal Activity Assay (broth microtiter MIC), C. albicans. To be noted: Candida albicans, ATCC90028, 48 h, 3 replicates; MIC recorded at 48 h; read-out: MIC C. albicans ATCC 90028. Format: cell-based, Candida albicans. The procedure, abridged:
(§1)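 Plate from frozen stock onto Sabouraud dextrose agar, 35° C overnight; swab colonies into RPMI 1640+MOPS; set density via standard curves; run CLSI M27-A3 broth microdilution; score MIC visually versus growth control at 48 h, soraphen additionally at 24 h.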

The subject of a further test is C. krusei ATCC 6258. In words: Anti-Fungal Activity Assay (broth microtiter MIC), C. krusei. To be noted: Pichia kudriavzevii, ATCC6258, 48 h, 3 replicates; MIC recorded at 48 h; read-out: MIC C. krusei ATCC 6258. Format: cell-based, Candida krusei. In outline:
as §1

The test system of test [2] is C. parapsilosis ATCC 22019. In words: Anti-Fungal Activity Assay (broth microtiter MIC), C. parapsilosis. To be noted: Lodderomyces parapsilosis, ATCC22019, 48 h, 3 replicates; MIC recorded at 48 h; read-out: MIC C. parapsilosis ATCC 22019. Format: cell-based, Candida parapsilosis. In outline:
as §1

In another test the test system is Botrtyis cinerea (Bc). Kind of test: Growth inhibition assay of fungal pathogens, Bc. Format: cell-based. To be noted: 48 hours; read-out: Concentration at 90% Inhibition, Bc. The procedure, abridged:
(§2)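 Spores in 17% V8 medium exposed to compound at final 50, 10, 2 ppm or 2, 0.4, 0.08 ppm, with 2% DMSO. OD600 and visual ratings taken at 24 and 48 h, with blank subtracted. Percent growth inhibition derived from 48 h readings relative to 2% DMSO control.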

The test system of test [3] is Collectotrichum graminicola (Cg). Kind of test: Growth inhibition assay of fungal pathogens, Cg. Format: cell-based. To be noted: 48 hours; read-out: Concentration at 90% Inhibition, Cg. In outline:
as §2

For the next test, the system named is Diplodia maydis (Dm). Kind of test: Growth inhibition assay of fungal pathogens, Dm. To be noted: Stenocarpella maydis; 48 hours; read-out: Concentration at 90% Inhibition, Dm. Format: cell-based. The procedure, abridged: as §2
In test [4] the test system is Fusarium moniliforme (Fm). Kind of test: Growth inhibition assay of fungal pathogens, Fm. Format: cell-based. To be noted: Fusarium verticillioides; 48 hours; read-out: Concentration at 90% Inhibition, Fm. In outline: as §2
Test [5] relates to Fusarium virguliforme (Fv). Kind of test: Growth inhibition assay of fungal pathogens, Fv. Format: cell-based. To be noted: 48 hours, read-out: Concentration at 90% Inhibition, Fv. In outline:
as §2

In test [6] the test system is Phytophthora capsici (Pc). In words: Growth inhibition assay of fungal pathogens, Pc. Format: cell-based. To be noted: 48 hours, read-out: Concentration at 90% Inhibition, Pc. The procedure, abridged:
as §2

The subject of the next test is Rhizoctonia solani (Rs). Kind of test: Growth inhibition assay of fungal pathogens, Rs. Format: cell-based. To be noted: 48 hours, read-out: Concentration at 90% Inhibition, Rs.
The next test deals with Septoria tritici (St). In words: Growth inhibition assay of fungal pathogens, St. Format: cell-based. To be noted: Zymoseptoria tritici; 48 hours; read-out: Concentration at 90% Inhibition, St. In outline:
as §2

Test [7] relates to Blumeria graminis f sp. hordei. In words: Foliar protection test, barley powdery mildew control. Format: in vivo, Blumeria graminis f sp. hordei on Hordeum vulgare cv. Perry. To be noted: 168 h, compound concentration 50 ppm, foliar spray, evaluated 7 days after inoculation, read-out: Barley Powdery Mildew Control at 50 ppm. In outline:
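Barley cv. Perry at first true leaf (6 days) sprayed to wetness on both leaf sides with compound in 5% acetone/0.005% Tween 80, typically at 200, 100, 50, 10 or 2 ppm. Inoculated 24 h later by shaking spores from colonized plants; kept at 20-22 °C, 70% RH. Mildew colonization scored 7 days later as percent control.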

For the next test, the target named is Fungal ACC2 (UniProt Q00955). To be noted: read-out: Fungal ACC2 (IC50, in vitro ACC2 inhibition).
Fungal ACC2, sequence (Q00955 whole entry): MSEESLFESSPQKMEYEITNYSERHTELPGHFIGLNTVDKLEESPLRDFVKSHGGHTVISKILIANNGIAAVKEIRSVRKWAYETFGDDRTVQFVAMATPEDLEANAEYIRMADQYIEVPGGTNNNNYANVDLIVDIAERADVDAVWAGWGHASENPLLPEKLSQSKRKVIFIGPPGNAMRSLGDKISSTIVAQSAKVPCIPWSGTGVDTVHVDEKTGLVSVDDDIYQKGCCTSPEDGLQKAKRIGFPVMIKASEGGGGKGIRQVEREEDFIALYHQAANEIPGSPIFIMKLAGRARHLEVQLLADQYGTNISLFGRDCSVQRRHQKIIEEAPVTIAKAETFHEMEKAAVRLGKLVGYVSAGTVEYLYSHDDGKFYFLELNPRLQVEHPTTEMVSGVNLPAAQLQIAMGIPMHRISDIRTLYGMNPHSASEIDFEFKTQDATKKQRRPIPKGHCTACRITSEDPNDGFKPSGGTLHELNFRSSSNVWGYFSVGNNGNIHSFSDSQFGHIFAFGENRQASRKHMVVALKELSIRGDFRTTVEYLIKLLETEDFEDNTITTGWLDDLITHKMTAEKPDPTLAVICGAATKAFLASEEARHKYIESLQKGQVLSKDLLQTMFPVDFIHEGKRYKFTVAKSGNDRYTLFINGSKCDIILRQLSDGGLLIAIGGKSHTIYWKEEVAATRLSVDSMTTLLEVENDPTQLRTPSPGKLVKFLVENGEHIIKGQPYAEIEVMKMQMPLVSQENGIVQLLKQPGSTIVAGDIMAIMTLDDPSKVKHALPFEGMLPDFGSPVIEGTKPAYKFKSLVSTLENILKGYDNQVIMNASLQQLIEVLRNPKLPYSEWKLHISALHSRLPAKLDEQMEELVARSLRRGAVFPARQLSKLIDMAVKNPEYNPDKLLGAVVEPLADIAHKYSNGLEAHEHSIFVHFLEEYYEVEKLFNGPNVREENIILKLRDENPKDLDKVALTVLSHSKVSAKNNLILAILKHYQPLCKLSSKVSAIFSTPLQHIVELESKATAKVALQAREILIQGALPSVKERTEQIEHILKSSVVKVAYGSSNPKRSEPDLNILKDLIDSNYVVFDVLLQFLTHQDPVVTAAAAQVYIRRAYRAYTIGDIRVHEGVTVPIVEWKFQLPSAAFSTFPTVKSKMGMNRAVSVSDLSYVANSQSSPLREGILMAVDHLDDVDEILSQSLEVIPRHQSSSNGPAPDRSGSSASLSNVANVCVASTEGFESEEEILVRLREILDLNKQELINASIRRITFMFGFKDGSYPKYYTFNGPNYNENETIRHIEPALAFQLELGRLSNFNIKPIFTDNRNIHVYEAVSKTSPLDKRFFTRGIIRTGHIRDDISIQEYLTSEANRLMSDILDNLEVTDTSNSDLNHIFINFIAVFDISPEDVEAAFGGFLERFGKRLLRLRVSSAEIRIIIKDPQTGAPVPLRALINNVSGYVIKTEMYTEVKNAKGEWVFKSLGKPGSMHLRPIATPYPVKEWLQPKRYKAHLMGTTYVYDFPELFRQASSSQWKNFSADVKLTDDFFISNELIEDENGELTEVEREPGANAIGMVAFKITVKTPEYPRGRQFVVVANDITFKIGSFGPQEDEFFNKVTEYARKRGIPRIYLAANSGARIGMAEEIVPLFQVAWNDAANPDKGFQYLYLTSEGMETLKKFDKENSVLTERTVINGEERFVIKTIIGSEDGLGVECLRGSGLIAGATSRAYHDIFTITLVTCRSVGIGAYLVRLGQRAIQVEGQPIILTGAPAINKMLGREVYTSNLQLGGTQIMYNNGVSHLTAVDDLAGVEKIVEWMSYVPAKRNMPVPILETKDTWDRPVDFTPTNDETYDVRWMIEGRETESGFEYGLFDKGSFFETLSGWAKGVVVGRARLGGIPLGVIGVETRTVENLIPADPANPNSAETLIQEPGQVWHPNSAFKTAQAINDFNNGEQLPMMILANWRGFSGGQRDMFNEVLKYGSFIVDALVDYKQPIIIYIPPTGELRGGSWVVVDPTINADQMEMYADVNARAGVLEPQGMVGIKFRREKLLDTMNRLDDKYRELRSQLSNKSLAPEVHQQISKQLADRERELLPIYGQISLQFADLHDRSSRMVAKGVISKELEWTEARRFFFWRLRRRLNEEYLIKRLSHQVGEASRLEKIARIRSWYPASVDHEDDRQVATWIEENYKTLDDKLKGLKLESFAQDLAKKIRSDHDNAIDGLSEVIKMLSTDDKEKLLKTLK

In brackets after ≈: the same amount, converted by molar mass. Bounds are passed on as bounds.

Human ACC2, sequence (O00763 whole entry): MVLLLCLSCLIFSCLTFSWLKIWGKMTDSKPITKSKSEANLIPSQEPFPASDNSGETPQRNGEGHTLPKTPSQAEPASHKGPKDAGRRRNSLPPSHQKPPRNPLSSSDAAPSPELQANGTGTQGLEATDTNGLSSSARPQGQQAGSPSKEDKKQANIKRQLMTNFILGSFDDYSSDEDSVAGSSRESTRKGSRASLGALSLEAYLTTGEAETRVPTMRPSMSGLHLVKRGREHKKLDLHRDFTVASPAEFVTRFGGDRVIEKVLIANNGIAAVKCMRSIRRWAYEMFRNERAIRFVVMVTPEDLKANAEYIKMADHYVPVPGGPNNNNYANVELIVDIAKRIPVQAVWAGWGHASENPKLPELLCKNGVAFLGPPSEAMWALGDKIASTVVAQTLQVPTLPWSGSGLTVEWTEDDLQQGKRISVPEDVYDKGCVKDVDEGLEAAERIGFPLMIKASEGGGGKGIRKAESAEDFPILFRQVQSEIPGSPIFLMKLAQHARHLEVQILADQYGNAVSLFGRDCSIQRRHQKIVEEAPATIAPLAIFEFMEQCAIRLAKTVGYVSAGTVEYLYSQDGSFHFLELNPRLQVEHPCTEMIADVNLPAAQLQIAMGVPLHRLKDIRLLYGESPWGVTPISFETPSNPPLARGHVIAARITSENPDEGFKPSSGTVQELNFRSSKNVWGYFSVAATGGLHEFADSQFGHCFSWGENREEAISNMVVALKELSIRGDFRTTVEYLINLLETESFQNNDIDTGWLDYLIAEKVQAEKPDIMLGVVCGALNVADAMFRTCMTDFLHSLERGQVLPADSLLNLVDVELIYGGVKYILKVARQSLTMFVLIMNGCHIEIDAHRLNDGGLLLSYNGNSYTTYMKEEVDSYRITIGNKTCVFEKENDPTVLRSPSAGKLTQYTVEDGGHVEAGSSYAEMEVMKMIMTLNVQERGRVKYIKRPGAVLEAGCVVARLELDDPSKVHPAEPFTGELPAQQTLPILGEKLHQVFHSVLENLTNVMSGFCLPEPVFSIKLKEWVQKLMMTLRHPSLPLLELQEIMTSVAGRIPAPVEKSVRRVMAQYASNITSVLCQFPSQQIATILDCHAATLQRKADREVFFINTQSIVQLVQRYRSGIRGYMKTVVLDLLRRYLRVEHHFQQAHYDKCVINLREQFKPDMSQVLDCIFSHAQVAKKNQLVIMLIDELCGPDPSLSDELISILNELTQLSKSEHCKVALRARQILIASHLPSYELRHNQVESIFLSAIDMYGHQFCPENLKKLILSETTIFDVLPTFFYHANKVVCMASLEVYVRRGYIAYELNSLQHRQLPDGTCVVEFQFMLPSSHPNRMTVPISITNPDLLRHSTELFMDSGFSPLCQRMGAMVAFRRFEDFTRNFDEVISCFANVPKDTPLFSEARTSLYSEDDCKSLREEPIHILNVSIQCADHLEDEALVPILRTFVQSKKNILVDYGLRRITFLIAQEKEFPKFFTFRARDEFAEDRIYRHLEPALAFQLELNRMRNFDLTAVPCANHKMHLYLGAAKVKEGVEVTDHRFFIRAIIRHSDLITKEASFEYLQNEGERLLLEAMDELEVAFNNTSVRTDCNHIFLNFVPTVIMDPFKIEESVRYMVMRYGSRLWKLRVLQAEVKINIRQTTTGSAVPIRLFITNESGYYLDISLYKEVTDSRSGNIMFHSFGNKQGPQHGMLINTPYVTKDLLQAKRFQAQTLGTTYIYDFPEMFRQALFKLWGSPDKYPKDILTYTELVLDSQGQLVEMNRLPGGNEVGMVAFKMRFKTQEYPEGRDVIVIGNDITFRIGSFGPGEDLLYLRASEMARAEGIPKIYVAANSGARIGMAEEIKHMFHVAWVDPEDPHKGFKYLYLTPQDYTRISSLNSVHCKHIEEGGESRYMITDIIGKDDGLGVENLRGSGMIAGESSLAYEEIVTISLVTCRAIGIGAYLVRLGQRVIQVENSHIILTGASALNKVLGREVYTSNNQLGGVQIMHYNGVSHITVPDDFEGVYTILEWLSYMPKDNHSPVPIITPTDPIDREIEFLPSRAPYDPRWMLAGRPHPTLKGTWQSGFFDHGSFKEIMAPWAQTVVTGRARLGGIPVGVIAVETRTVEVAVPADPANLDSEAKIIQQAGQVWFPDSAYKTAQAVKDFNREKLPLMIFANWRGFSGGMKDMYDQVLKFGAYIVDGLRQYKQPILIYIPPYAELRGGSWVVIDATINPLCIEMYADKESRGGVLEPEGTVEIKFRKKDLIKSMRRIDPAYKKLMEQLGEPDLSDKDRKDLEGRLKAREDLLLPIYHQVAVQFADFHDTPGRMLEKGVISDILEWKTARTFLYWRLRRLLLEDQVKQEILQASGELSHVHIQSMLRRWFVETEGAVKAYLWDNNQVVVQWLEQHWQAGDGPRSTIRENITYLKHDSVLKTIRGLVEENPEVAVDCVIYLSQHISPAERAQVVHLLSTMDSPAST

Consider `COc1ccc(F)cc1[C@H](Cn1c(=O)n([C@H]2CCCN(C)C2=O)c(=O)c2c(C)c(-n3nccn3)sc21)OCCO` [Compound I-72, 1-((R)-2-(5-fluoro-2-methoxyphenyl)-2-(2-hydroxyethoxy)ethyl)-5-methyl-3-((S)-1-methyl-2-oxopiperidin-3-yl)-6-(2H-1,2,3-triazol-2-yl)thieno[2,3-d]pyrimidine-2,4(1H,3H)-dione], for which the “Barley Powdery Mildew Control at 10 ppm” value in test [1] is recorded as “D (provided a compound having <25% control of barley powdery mildew)”. Also, the IC50 was 0.002 to 0.01 µM on Human ACC2 and 0.0007 to 0.002 µM on Fungal ACC2. The MIC (with C. albicans ATCC 90028; in the test on C. krusei ATCC 6258; in test [2]) was 2.1 to 4 µg/mL (≈ 3.67 to 6.99 µM) throughout. Moreover, the IC90 in the test on Botrtyis cinerea (Bc) was more than 50 µg/mL; in test [3], 10 µg/mL (≈ 17.5 µM); in the test on Diplodia maydis (Dm), 10 µg/mL (≈ 17.5 µM); in test [4], 2 µg/mL (≈ 3.49 µM); in test [5] it was 2 µg/mL (≈ 3.49 µM); in test [6], more than 50 µg/mL. The IC90 is 2 µg/mL (≈ 3.49 µM) in the test with Rhizoctonia solani (Rs) and more than 50 µg/mL in the test with Septoria tritici (St). In test [7], the pest or weed control at 50 ppm is 25 to 49%.
In the case of `COCCO[C@@H](Cn1c(=O)n([C@H]2CCN(C)C2=O)c(=O)c2c(C)c(-n3nccn3)sc21)c1cc(F)ccc1OC` [Compound I-27, 1-((R)-2-(5-fluoro-2-methoxyphenyl)-2-(2-methoxy-ethoxy)ethyl)-5-methyl-3-((S)-1-methyl-2-oxopyrrolidin-3-yl)-6-(2H-1,2,3-triazol-2-yl)thieno[2,3-d]pyrimidine-2,4(1H,3H)-dione], the “Barley Powdery Mildew Control at 10 ppm” value in [1] is on record as “D (provided a compound having <25% control of barley powdery mildew)”. The IC50 on Human ACC2 was 0.01 to 0.1 µM; on Fungal ACC2 it was 0.002 to 0.01 µM. The MIC (with C. albicans ATCC 90028; with C. krusei ATCC 6258; in test [2]) was 2.1 to 4 µg/mL (≈ 3.67 to 6.99 µM) in each case. In addition, the IC90 in the test with Botrtyis cinerea (Bc) was 2 µg/mL (≈ 3.49 µM); in test [3], more than 50 µg/mL; in the test on Diplodia maydis (Dm), more than 50 µg/mL; in test [4], 2 µg/mL (≈ 3.49 µM); in test [5], 10 µg/mL (≈ 17.5 µM); in test [6] it was more than 50 µg/mL. The IC90 in the test on Rhizoctonia solani (Rs) and in the test on Septoria tritici (St) was more than 50 µg/mL each time. Moreover, in test [7], the pest or weed control at 50 ppm lay in the range of 50 to 69%.
`COCCO[C@@H](Cn1c(=O)n([C@H]2CCNC2=O)c(=O)c2c(C)c(-n3cccn3)sc21)c1cc(F)ccc1OC` [Compound I-41, 1-((R)-2-(5-fluoro-2-methoxyphenyl)-2-(2-methoxy-ethoxy)ethyl)-5-methyl-3-((S)-2-oxopyrrolidin-3-yl)-6-(I H-pyrazol-1-yl)thieno[2,3-d]pyrimidine-2,4(1H,3H)-dione]: in test [1], the “Barley Powdery Mildew Control at 10 ppm” value is “D (provided a compound having <25% control of barley powdery mildew)”. Besides, the minimum inhibitory concentration (MIC) (in the test on C. albicans ATCC 90028; in the test on C. krusei ATCC 6258; in test [2]) was 2.1 to 4 µg/mL (≈ 3.77 to 7.17 µM) each time. Besides, the IC90 (in the test on Botrtyis cinerea (Bc); in test [3]; in the test with Diplodia maydis (Dm); in [4]; in [5]; in test [6]) was more than 50 µg/mL throughout. For the same compound, the IC90 with Rhizoctonia solani (Rs) and in the test on Septoria tritici (St) was more than 50 µg/mL in each case. Besides, in [7], the pest or weed control at 50 ppm lay in the range of 25 to 49%. Besides, on Fungal ACC2, the IC50 was 0.01 to 0.1 µM.
As to `COCCO[C@@H](Cn1c(=O)n([C@H]2CCN(C)C2=O)c(=O)c2c(C)c(-n3cccn3)sc21)c1cc(F)ccc1OC` [Compound I-43, 1-((R)-2-(5-fluoro-2-methoxyphenyl)-2-(2-methoxy-ethoxy)ethyl)-5-methyl-3-((S)-1-methyl-2-oxopyrrolidin-3-yl)-6-(1H-pyrazol-1-yl)thieno[2,3-d]pyrimidine-2,4(1H,3H)-dione], the “Barley Powdery Mildew Control at 10 ppm” value in test [1] is “D (provided a compound having <25% control of barley powdery mildew)”. Moreover, the MIC (in the test with C. albicans ATCC 90028; in the test with C. krusei ATCC 6258; in test [2]) was 2.1 to 4 µg/mL (≈ 3.67 to 7 µM) in each case. Also, the IC90 (in the test with Botrtyis cinerea (Bc); in test [3]; with Diplodia maydis (Dm); in [4]; in test [5]; in test [6]) was more than 50 µg/mL each time. In addition, the IC90 in the test on Rhizoctonia solani (Rs) and in the test on Septoria tritici (St) was more than 50 µg/mL in each case. Further, the pest or weed control at 50 ppm in test [7] is 70 to 84%. Also, the IC50 at Fungal ACC2 is 0.01 to 0.1 µM.

(Values after patent publication US20190330224A1, “ACC INHIBITORS AND USES THEREOF” (Gilead Apollo, LLC, priority 2015, published 2019).)
